In brackets after ≈: the same amount, converted by molar mass.
How the values were obtained:
[1] = tested on: Staphylococcus aureus spp.aureus ATCC 29213, CCM 4223; assay: Antibacterial microdilution broth method (EUCAST); type: cell-based; conditions: 48 h, read-out: MIC against Staphylococcus aureus
[2] = tested on: Staphylococcus aureus methicillin resistant ATCC 43300, CCM 4750; assay: microbe, parasite or virus in culture; type: cell-based; conditions: 48 h, read-out: MIC against Staphylococcus aureus methicillin resistant
[3] = tested on: Staphylococcus epidermidis ATCC 12228, CCM 4418; assay: Antibacterial microdilution broth method (EUCAST); type: cell-based; conditions: 48 h, read-out: MIC against Staphylococcus epidermidis
[4] = tested on: Enterococcus faecalis ATCC 29212, CCM 4224; assay: Antibacterial microdilution broth method (EUCAST); type: cell-based; conditions: 48 h, read-out: MIC against Enterococcus faecalis
[5] = tested on: Escherichia coli ATCC 25922, CCM 3954; assay: Antibacterial microdilution broth method (EUCAST); type: cell-based; conditions: 48 h, read-out: MIC against Escherichia coli
[6] = tested on: Pseudomonas aeruginosa ATCC 27853, CCM 3955; assay: Antibacterial microdilution broth method (EUCAST); type: cell-based; conditions: 48 h, read-out: MIC against Pseudomonas aeruginosa
Serratia marcescens = assay: Antibacterial microdilution broth method (EUCAST); type: cell-based; conditions: 48 h, standards, read-out: MIC against Serratia marcescens
[7] = tested on: Klebsiella pneumoniae ATCC 10031, CCM 4415; assay: Antibacterial microdilution broth method (EUCAST); conditions: Klebsiella pneumoniae, ATCC10031|CCM4415, 48 h, read-out: MIC against Klebsiella pneumoniae
[8] = tested on: Mycobacterium tuberculosis H37Ra ITM-M006710 (ATCC 9431); assay: Microdilution broth, modified Microplate Alamar Blue Assay, whole cell growth inhibition; type: cell-based; conditions: Mycobacterium tuberculosis; in vitro, Middlebrook 7H9 broth, resazurin; read-out: MIC Mtb H37Ra
[9] = tested on: Mycobacterium aurum DSM 43999 (ATCC 23366); assay: as above; type: cell-based; conditions: Mycolicibacterium aurum; in vitro, Middlebrook 7H9 broth, resazurin; read-out: MIC Mycobacterium aurum
[10] = tested on: Mycobacterium smegmatis DSM 43465 (ATCC 607); assay: as above; type: cell-based; conditions: Mycolicibacterium smegmatis; in vitro, Middlebrook 7H9 broth, resazurin; read-out: MIC Mycobacterium smegmatis
[11] = tested on: M. kansasii CNCTC My 235/80 (ATCC 12478); assay: 96 well plate microdilution broth method with Alamar Blue; type: cell-based; conditions: Mycobacterium kansasii, ATCC12478; Middlebrook 7H9 broth pH 6.6; read-out: MIC Mycobacterium kansasii
[12] = tested on: M. avium ssp. avium CNCTC My 80/72 (ATCC 15769); assay: as above; type: cell-based; conditions: Mycobacterium avium, ATCC15769; Middlebrook 7H9 broth pH 6.6; read-out: MIC Mycobacterium avium
HepG2 cells = assay: HepG2 cytotoxicity, CellTiter 96 (MTS) assay; type: cell-based, human; conditions: for IC50: Homo sapiens, HepG2, 24 h incubation, > means higher concentration not reproducible due to precipitation, read-out: HepG2 IC50; for SI, selectivity index: IC50 (HepG2)/MIC against Mtb H37Ra (in µM)
[13] = type: physicochemical
Procedure: As a complementary test, final compounds were tested for in vitro activity against selected fungal and bacterial pathogens of clinical importance. The microdilution broth method was performed according to The European Committee on Antimicrobial Susceptibility Testing (EUCAST) instructions with slight modifications. The minimum inhibitory concentration was expressed in µM. Not all compounds were evaluated due to the fact of a problem with solubility which occurred for 18 samples. […] See Supplementary Materials for the list of tested strains, methodology, and full results.

Row | Structure (SMILES) | MIC [1] [µg/mL] | MIC [2] [µg/mL] | MIC [3] [µg/mL] | MIC [4] [µg/mL] | MIC [5] [µg/mL] | MIC [6] [µg/mL] | MIC (Serratia marcescens) [µg/mL] | MIC [7] [µg/mL] | MIC [8] [µg/mL] | MIC [9] [µg/mL] | MIC [10] [µg/mL] | MIC [11] [µg/mL] | MIC [12] [µg/mL] | IC50 (HepG2 cells) [µM] | SI, selectivity index (HepG2 cells) | Solubility problem in antibacterial/antifungal testing [13] | melting point [°C]
1 | CNC(C)C1CCC(N)C(OC2C(N)CC(N)C(OC3OCC(C)(O)C(NC)C3O)C2O)O1 (stereo not drawn) [gentamicin, reference compound] | 1 (≈ 2.09 µM) | 16 to 32 (≈ 33.5 to 67 µM) | > 8 | 8 (≈ 16.8 µM) | 1 to 2 (≈ 2.09 to 4.19 µM) | 0.5 (≈ 1.05 µM) | 2 (≈ 4.19 µM) | > 8 |  |  |  |  |  |  |  |  | 
2 | O=C(O)c1cn(C2CC2)c2cc(N3CCNCC3)c(F)cc2c1=O [CPX, ciprofloxacin, reference compound] |  |  |  |  |  |  | 0.256 (≈ 0.773 µM) |  | 0.125 to 0.25 (≈ 0.377 to 0.754 µM) | 0.0156 to 0.0313 (≈ 0.0471 to 0.0945 µM) | 0.0625 to 0.125 (≈ 0.189 to 0.377 µM) |  |  |  |  |  | 
3 | CCCCCCNc1cnc(C(=O)Nc2ccc(Cl)cc2O)cn1 [Compound 6d, N-(4-chloro-2-hydroxyphenyl)-5-(hexylamino)pyrazine-2-carboxamide] |  |  |  |  |  |  |  |  | 3.13 (≈ 8.97 µM) | ≥ 500 | 3.91 (≈ 11.2 µM) | 25 (≈ 71.7 µM) | > 100 | > 50 | >5.27 | did not dissolve in DMSO | 201.7 to 204.9
4 | CCCCCCCCNc1cnc(C(=O)Nc2ccc(O)cc2)cn1 [Compound 3f, N-(4-hydroxyphenyl)-5-(octylamino)pyrazine-2-carboxamide] |  |  |  |  |  |  |  |  | 3.13 (≈ 9.14 µM) | ≥ 250 | ≥ 250 | 6.25 (≈ 18.3 µM) | > 100 | 60.2 | 6.6 | did not dissolve in DMSO | 142 to 143

Reference: paper PMC7180572, “5-Alkylamino-N-phenylpyrazine-2-carboxamides: Design, Preparation, and Antimycobacterial Evaluation” (Molecules, 2020)
